Like-named read-outs stand apart in the source and are kept apart here. One block for each molecule: values may come before it.
Assays:
[1] = test system: CEM cells; test: Cytostatic assay, CEM; assay type: cell-based; conditions: for Ratio (tumor cell selectivity): ratio IC50 HeLa / IC50 CEM
Description: (§1) To each well of a 96-well microtiter plate were added 5-7.5×10^4 cells and a given amount of the test compound. The cells were allowed to proliferate for 48 h to 96 h (depending on the nature of the cell line) at 37° C. in a humidified CO2-controlled atmosphere. At the end of the incubation period, the cells were counted in a Coulter Counter (Coulter Electronics Ltd, Harpenden Herts, United Kingdom).

[2] = test system: HeLa cervix carcinoma cells; test: Cytostatic assay, HeLa; assay type: cell-based, human
Description: as §1

[3] = Homo sapiens, CCRF-CEM, CEM cells, Table 7, 5-arylthiomethyl-substituted 2-amino-3-carboxymethylthiophenes, read-out: IC50 (μM) CEM
[4] = Homo sapiens, HeLa cells, Table 7, 5-arylthiomethyl-substituted 2-amino-3-carboxymethylthiophenes, read-out: IC50 (μM) HeLa
[5] = CEM cells, Table 7, 5-arylthiomethyl-substituted 2-amino-3-carboxymethylthiophenes, read-out: IC50 (μM) CEM
[6] = Table 1b, read-out: IC50 (μM) (CEM)
[7] = HeLa cells, Table 7, 5-arylthiomethyl-substituted 2-amino-3-carboxymethylthiophenes, read-out: IC50 (μM) HeLa
[8] = Table 1b, read-out: IC50 (μM) (HeLa)
[9] = Homo sapiens, CCRF-CEM, Table 1a, read-out: IC50 μM (CEM)
[10] = Homo sapiens, CCRF-CEM, Table 1b, read-out: IC50 (μM) (CEM)
[11] = Homo sapiens, Table 1b, read-out: IC50 (μM) (HeLa)
[12] = Homo sapiens, CCRF-CEM, CEM cells, Table 6, 5-alkyl-substituted 2-aminothiophenes, read-out: IC50 (μM) CEM
[13] = Homo sapiens, HeLa cells, Table 6, 5-alkyl-substituted 2-aminothiophenes, read-out: IC50 (μM) HeLa

- IC50 ([1]; Table 1a, read-out: IC50 μM (CEM)): 31 µM
Molecule: 2-Amino-5-(2-(4-methoxyphenyl)ethyl)thiophene-3-carboxylate [TJ8]

- IC50 [1, 3]: 2 µM
- IC50 [2, 4]: 71 µM
Molecule: COC(=O)c1cc(CSc2ccccc2C)sc1N [Compound D3, Methyl 2-amino-5-(o-tolylthiomethyl)thiophene-3-carboxylate]
- Ratio (tumor cell selectivity) ([1]; Table 7): 36

- IC50 [1, 3]: 1.7 µM
- IC50 [2, 4]: 42 µM
Molecule: COC(=O)c1cc(CSc2ccc(Cl)cc2)sc1N [Compound D4, Methyl 2-amino-5-((4-chlorophenylthio)methyl)thiophene-3-carboxylate]
- Ratio (tumor cell selectivity) ([1]; Table 7): 25

- IC50 [1, 3]: 17 µM
- IC50 [2, 4]: 94 µM
Molecule: COC(=O)c1cc(CSc2ccccc2OC)sc1N [Compound D6, Methyl 2-amino-5-((2-methoxyphenylthio)methyl)thiophene-3-carboxylate]
- Ratio (tumor cell selectivity) ([1]; Table 7): 6

- IC50 [1, 3]: 27 µM
- IC50 [2, 4]: 190 µM
Molecule: COC(=O)c1ccccc1SCc1cc(C(=O)OC)c(N)s1 [Compound D7, Methyl 2-amino-5-((2-(methoxycarbonyl)phenylthio)methyl)thiophene-3-carboxylate]
- Ratio (tumor cell selectivity) ([1]; Table 7): 7

- IC50 [1, 3]: 2.1 µM
- IC50 [2, 4]: 81 µM
Molecule: COC(=O)c1cc(CSC2CCCCC2)sc1N [Compound D8, Methyl 2-amino-5-(cyclohexylthiomethyl)thiophene-3-carboxylate]
- Ratio (tumor cell selectivity) ([1]; Table 7): 39

- IC50 [1, 3]: 3.1 µM
- IC50 [2, 4]: 102 µM
Molecule: COC(=O)c1cc(CSc2ccc(F)cc2)sc1N [Compound D10, Methyl 2-amino-5-((4-fluorophenylthio)methyl)thiophene-3-carboxylate]
- Ratio (tumor cell selectivity) ([1]; Table 7): 33

- IC50 [1, 5]: 1.3 µM
- IC50 [1, 6]: 1.3 ± 0.6 µM
- IC50 [2, 7]: 108 µM
- IC50 [2, 8]: 108 ± 7 µM
Molecule: COC(=O)c1cc(CSc2ccccc2)sc1N [TJ4, Methyl 2-amino-5-(2-(phenyl)sulfanylmethyl)thiophene-3-carboxylate]
- Ratio (tumor cell selectivity) ([1]; Table 7): 83

- IC50 [1, 9]: 23 µM
Molecule: CNc1sc(CCc2ccc(OC)cc2)cc1C(=O)OC [TJ6A, Methyl 2-methylamino-5-(2-(4-methoxyphenyl)ethyl)thiophene-3-carboxylate]

- IC50 [1, 9]: 18 µM
Molecule: COC(=O)c1cc(CCc2ccc(OC)cc2)sc1N(C)C [TJ6B, Methyl 2-dimethylamino-5-(2-(4-methoxyphenyl)ethyl)thiophene-3-carboxylate]

- IC50 [1, 9]: 87 µM
Molecule: COC(=O)c1csc(CCc2ccc(OC)cc2)c1 [TJ7, Methyl 5-(2-(4-methoxyphenyl)ethyl)thiophene-3-carboxylate]

- IC50 [1, 9]: 39 µM
Molecule: COc1ccc(CCc2cc(C(N)=O)c(N)s2)cc1 [TJ9, 2-Amino-5-(2-(4-methoxyphenyl)ethyl)thiophene-3-carboxamide]

- IC50 [1, 9]: 31 µM
Molecule: CNC(=O)c1cc(CCc2ccc(OC)cc2)sc1N [TJ19, N-Methyl 2-amino-5-(2-(4-methoxyphenyl)ethyl)thiophene-3-carboxamide]

- IC50 [1, 6]: 4.9 ± 1.4 µM
- IC50 [2, 8]: 112 ± 2 µM
Molecule: COC(=O)c1cc(CSc2ccc(OC)cc2)sc1N1C(=O)c2ccccc2C1=O [TJ21, Methyl 2-phthalimido-5-(2-(4-methoxyphenyl)sulfanylmethyl)thiophene-3-carboxylate]

- IC50 [1, 5]: 0.62 µM
- IC50 [1, 6]: 0.62 ± 0.33 µM
- IC50 [2, 7]: 58 µM
- IC50 [2, 8]: 58 ± 1 µM
Molecule: COC(=O)c1cc(CSc2ccc(OC)cc2)sc1N [TJ22, Methyl 2-amino-5-(2-(4-methoxyphenyl)sulfanylmethyl)thiophene-3-carboxylate]
- Ratio (tumor cell selectivity) ([1]; Table 7): 93

- IC50 [1, 6]: 43 ± 13 µM
- IC50 [2, 8]: 68 ± 13 µM
Molecule: COC(=O)c1cc(COc2ccc(OC)cc2)sc1N [TJ25, Methyl 2-amino-5-(2-(4-methoxyphenyl)oxymethyl)thiophene-3-carboxylate]

- IC50 [1, 6]: 96 ± 16 µM
- IC50 [2, 8]: 78 ± 15 µM
Molecule: COC(=O)c1cc(CNc2ccc(OC)cc2)sc1N [TJ51, Methyl 2-amino-5-(2-(4-methoxyphenyl)aminomethyl)thiophene-3-carboxylate]

- IC50 [1, 3]: 124 µM
- IC50 [2, 4]: 75 µM
Molecule: COC(=O)c1cc(CSc2cccc(C(=O)O)c2)sc1N [TJ53, 3-((5-amino-4-(methoxycarbonyl)thiophen-2-yl)methylthio)benzoic acid]
- Ratio (tumor cell selectivity) ([1]; Table 7): ≦1

- IC50 [1, 5]: 4.1 µM
- IC50 [1, 6]: 4.1 ± 1.7 µM
- IC50 [2, 7]: 108 µM
- IC50 [2, 8]: 108 µM
Molecule: COC(=O)c1cc(CSc2cccc(C)c2)sc1N [TJ54P, Methyl 2-amino-5-(2-(3-methylphenyl)sulfanylmethyl)thiophene-3-carboxylate]
- Ratio (tumor cell selectivity) ([1]; Table 7): 26

- IC50 [1, 6]: 6.9 ± 0.7 µM
- IC50 [2, 8]: 121 ± 13 µM
Molecule: COC(=O)c1cc(CSc2cccc(C)c2)sc1N1C(=O)c2ccccc2C1=O [TJ54SM, Methyl 2-phthalimido-5-(2-(3-methylphenyl)sulfanylmethyl)thiophene-3-carboxylate]

- IC50 [1, 3]: 1.5 µM
- IC50 [1, 10]: 1.5 ± 0.3 µM
- IC50 [2, 4]: 72 µM
- IC50 [2, 11]: 72 ± 30 µM
Molecule: COC(=O)c1cc(CSc2ccc(C)cc2)sc1N [TJ55, Methyl 2-amino-5-((4-methylphenylthio)methyl)thiophene-3-carboxylate]
- Ratio (tumor cell selectivity) ([1]; Table 7): 48

- IC50 [1, 5]: 3.5 µM
- IC50 [1, 6]: 3.5 ± 1.1 µM
- IC50 [2, 7]: 61 µM
- IC50 [2, 8]: 61 ± 38 µM
Molecule: COC(=O)c1cc(CSCc2ccccc2)sc1N [TJ57, Methyl 2-amino-5-(2-(phenyl)methylsulfanylmethyl)thiophene-3-carboxylate]
- Ratio (tumor cell selectivity) ([1]; Table 7): 17

- IC50 [1, 6]: 13 ± 7 µM
- IC50 [2, 8]: 184 ± 6 µM
Molecule: COC(=O)c1cc(CSc2ccccc2)sc1N1C(=O)c2ccccc2C1=O [TJ86, Methyl 2-phthalimido-5-(2-(phenyl)sulfanylmethyl)thiophene-3-carboxylate]

- IC50 [1, 9]: 8.4 µM
Molecule: COC(=O)c1cc(Cc2ccccc2)sc1N [TJ109, Methyl 2-amino-5-benzylthiophene-3-carboxylate]

- IC50 [1, 3]: 0.9 µM
- IC50 [1, 10]: 0.9 ± 0.04 µM
- IC50 [2, 4]: 74 µM
- IC50 [2, 11]: 74 ± 6 µM
Molecule: COC(=O)c1cc(CSc2ccc3ccccc3c2)sc1N [TJ113, Methyl 2-amino-5-((naphthalen-2-ylthio)methyl)thiophene-3-carboxylate]
- Ratio (tumor cell selectivity) ([1]; Table 7): 82

- IC50 [1, 3]: 4.9 µM
- IC50 [1, 10]: 4.9 ± 0.1 µM
- IC50 [2, 4]: 102 µM
- IC50 [2, 11]: 102 ± 6 µM
Molecule: COC(=O)c1cc(CSCc2ccco2)sc1N [TJ117, Methyl 2-amino-5-((furan-2-ylmethylthio)methyl)thiophene-3-carboxylate]
- Ratio (tumor cell selectivity) ([1]; Table 7): 21

- IC50 [1, 3]: 3.3 µM
- IC50 [1, 10]: 3.3 ± 0.9 µM
- IC50 [2, 4]: 99 µM
- IC50 [2, 11]: 99 ± 5 µM
Molecule: COC(=O)c1cc(CSCc2cccs2)sc1N [TJ118, Methyl 2-amino-5-((thiophen-2-ylmethylthio)methyl)thiophene-3-carboxylate]
- Ratio (tumor cell selectivity) ([1]; Table 7): 30

- IC50 ([1]; Table 1c, read-out: IC50 (μM) CEM): 6.6 ± 3.2 µM
- IC50 ([2]; Table 1c, read-out: IC50 (μM) HeLa): 104 ± 1 µM
Molecule: CCCCSCc1cc(C(=O)OC)c(N2C(=O)c3ccccc3C2=O)s1 [TJ119, Methyl 2-phthalimido-5-(2-(butyl)sulfanylmethyl)thiophene-3-carboxylate]

- IC50 [1, 3]: 39 µM
- IC50 [2, 4]: 46 µM
Molecule: COC(=O)c1cc(CSc2ccccc2N)sc1N [TJ122, Methyl 2-amino-5-((2-aminophenylthio)methyl)thiophene-3-carboxylate]
- Ratio (tumor cell selectivity) ([1]; Table 7): 1

- IC50 [1, 3]: 12 µM
- IC50 [2, 4]: 16 µM
Molecule: COC(=O)c1cc(CSc2ccc([N+](=O)[O-])cc2)sc1N [TJ126, Methyl 2-amino-5-((4-nitrophenylthio)methyl)thiophene-3-carboxylate]
- Ratio (tumor cell selectivity) ([1]; Table 7): 1

- IC50 [1, 6]: 25 ± 8 µM
- IC50 [2, 8]: 111 ± 20 µM
Molecule: COC(=O)c1cc(CSCc2ccc(OC)cc2)sc1N1C(=O)c2ccccc2C1=O [TJ127, Methyl 2-phthalimido-5-(2-(4-methoxybenzyl)sulfanylmethyl)thiophene-3-carboxylate]

- IC50 [1, 3]: 111 µM
- IC50 [2, 4]: 93 µM
Molecule: COC(=O)c1cc(CSc2ccncc2)sc1N [TJ129, Methyl 2-amino-5-((pyridin-4-ylthio)methyl)thiophene-3-carboxylate]
- Ratio (tumor cell selectivity) ([1]; Table 7): 1

- IC50 [1, 3]: 3.9 µM
- IC50 [1, 10]: 3.9 ± 1.4 µM
- IC50 [2, 4]: 88 µM
- IC50 [2, 11]: 88 ± 10 µM
Molecule: COC(=O)c1cc(CSc2ccc(OC)cc2)sc1N [TJ130, Methyl 2-amino-5-((4-methoxyphenylthio)methyl)thiophene-3-carboxylate]
- Ratio (tumor cell selectivity) ([1]; Table 7): 23

- IC50 [1, 12]: 175 µM
- IC50 [2, 13]: 180 µM
Molecule: CCc1cc(C(=O)OC)c(N)s1 [TJ157, Methyl 2-amino-5-ethylthiophene-3-carboxylate]
- Ratio (tumor cell selectivity) ([1]; Table 6): 1

- IC50 [1, 12]: 26 µM
- IC50 [2, 13]: 150 µM
Molecule: COC(=O)c1cc(CCCCl)sc1N [TJ168D, Methyl 2-amino-5-(3-chloropropyl)thiophene-3-carboxylate]
- Ratio (tumor cell selectivity) ([1]; Table 6): 6

- IC50 [1, 3]: 0.97 µM
- IC50 [2, 4]: 59 µM
Molecule: COC(=O)c1cc(CCCSc2ccc(OC)cc2)sc1N [TJ169, Methyl 2-amino-5-(3-(4-methoxyphenylthio)propyl)thiophene-3-carboxylate]
- Ratio (tumor cell selectivity) ([1]; Table 7): 61

— patent US9278958B2, “Anti-cancer compounds” (KATHOLIEKE UNIVERSITEIT LEUVEN, priority 2012, dated 2016)
